From US10457707B2, “Substituted urea depsipeptide analogs as activators of the CLPP endopeptidase” (priority 2015, dated 2019)
In brackets after ≈: the same amount, converted by molar mass. Where two headings read alike, the source gives them in different places. *1 amine or outer side, *2 acyl side, *3 side chain or, on linkers, in order; H or OH if unused. Where a SMILES comes first, the peptide text is derived from it. Bridges are numbered along the chain shown (N, C = ends). [ ]: non-standard residue; d: D form. The star is where a group is joined. ξ: configuration not given here. Phe(3,5-F2) = N[C@@H](Cc1cc(F)cc(F)c1)C(=O)O; ξPro(4S-Me) = C[C@@H]1CNC(C(=O)O)C1; ξPro(4R-Me) = C[C@H]1CNC(C(=O)O)C1; Heptenoyl(2E) = CCCC/C=C/C(=O)*; NH(4-Me-phenyl) = Cc1ccc(N*)cc1; aThr = C[C@H](O)[C@H](N)C(=O)O; Pip = O=C(O)[C@@H]1CCCCN1; NMeA = CN[C@@H](C)C(=O)O; ξPip = O=C(O)C1CCCCN1; CO = O=C([*:1])[*:2]; ξP = O=C(O)C1CCCN1

Experiments:
Format in all cases: cell-based
[1] = test system: Streptococcus pneumoniae, R6; assay: Minimal inhibitory concentration assay; conditions: read-out: Minimal Inhibitory Concentrations S. pneumoniae R6
Outline: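 Microbroth dilution with two-fold serial compound dilutions in broth, incubated aerobically overnight at 37° C. MIC taken as the lowest concentration preventing bacterial growth.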

[2] = test system: Bacillus subtilis, ATCC 23857; assay: Minimal inhibitory concentration assay (microbroth dilution)
Outline: (§1)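 Compound is serially diluted two-fold in the appropriate broth, and bacterial inoculum at about 10^5 cfu/mL is added so the highest final concentration is 200 μM. Plates stay overnight at 37 °C under aerobic conditions before growth is scored by eye.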

[3] = test system: Staphylococcus aureus, ATCC 29213; assay: as above; conditions: ATCC29213, read-out: Minimal Inhibitory Concentrations S. aureus ATCC 29213
Outline: as §1

[4] = test system: Staphylococcus aureus, NRS70; assay: as above
Outline: as §1

[5] = test system: Staphylococcus aureus, USA 300 wherein ClpP is inactivated; assay: Minimal inhibitory concentration assay
Outline: as §1

[6] = test system: Staphylococcus aureus, USA 300; assay: Minimal inhibitory concentration assay; conditions: USA300, read-out: Minimal Inhibitory Concentrations S. aureus USA 300
Outline: as §1

[7] = test system: Vero (kidney epithelial cells; ATCC CCL-81); assay: Cytotoxicity assay (CellTiter-Glo cell viability, 72 hours); conditions: Vero cells, 72 hours, growth inhibition; read-out: Cytotoxicity IC50
Procedure: Cytotoxicity was determined by determining the effect of compounds on cell viability. Vero (kidney epithelial cells; ATCC CCL-81) monolayers were trypsinized and 5000 cells/well were seeded (10-15% confluency) into white-wall, flat bottom 96 well microwell plates (Corning) using enriched Dulbecco's Modified Eagle's Medium (Hyclone:DMEM/High Glucose) containing 10% Fetal Bovine Serum (ATCC-30-2020). Plates were incubated overnight at 37° C. in the presence of 5% CO2. Drug-free media was then replaced with media containing serial dilutions of test compound or DMSO carrier. After an additional 72 hours of incubation, viability was indirectly measured using the CellTiter-Glo® Luminescent Cell Viability (Promega) assay. Assay plates were read at peak emission wavelength of 560 nm using a EnVision® Multilabel Plate Reader (Perkin Elmer) or PHERAstar FS Multilabel reader (BMG, Cary, N.C.). […] USA, www.graphpad.com]. For each experiment, compounds were tested in duplicate. IC50 values presented are the range of two biologically independent experiments.

[8] = test system: Streptococcus pyogenes, ATCC 700294; assay: Minimal inhibitory concentration assay (microbroth dilution)
Outline: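 Plates with two-fold compound dilution series in broth were incubated overnight, aerobically, at 37° C, following CLSI microdilution guidance.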

[9] = test system: Enterococcus faecalis, ATCC 33186; assay: as above; conditions: Enterococcus faecalis, ATCC33186; read-out: Minimal Inhibitory Concentrations E. faecalis ATCC 33186
Outline: as §1

[10] = Bacillus subtilis, ATCC23857, read-out: Minimal Inhibitory Concentrations B. subtilis ATCC 23857
[11] = Staphylococcus aureus, NRS70, read-out: Minimal Inhibitory Concentrations S. aureus NRS70
[12] = Streptococcus pyogenes, ATCC700294, read-out: Minimal Inhibitory Concentrations S. pyogenes ATCC 700294

| Compound | MIC [1] | MIC [2, 10] | MIC [3] | MIC [4, 11] | Minimal Inhibitory Concentrations S. aureus USA 300 ΔClpP [5] | MIC [6] | IC50 [7] | MIC [8, 12] | MIC ([2]; Bacillus subtilis, ATCC23857; read-out: Minimal Inhibitory Concentrations B. subtilis ATCC 23857) | MIC [9] | MIC ([4]; Staphylococcus aureus, NRS70; read-out: Minimal Inhibitory Concentrations S. aureus NRS70) | MIC ([8]; Streptococcus pyogenes, ATCC700294; read-out: Minimal Inhibitory Concentrations S. pyogenes ATCC 700294) |
| --- | --- | --- | --- | --- | --- | --- | --- | --- | --- | --- | --- | --- |
| Cc1ccc(NC(=O)N[C@@H](Cc2cc(F)cc(F)c2)C(=O)N[C@@H]2C(=O)N3CCCC3C(=O)N(C)[C@@H](C)C(=O)N[C@@H](C)C(=O)N3C[C@@H](C)CC3C(=O)O[C@H]2C)cc1 (stereo partly drawn) [Compound 26, (2S)-3-(3,5-difluorophenyl)-N-((2S,6S,9S,11aS,17S,18S)-2,6,9,10,18-pentamethyl-5,8,11,16,20-pentaoxohexadecahydro-1H,5H,16H-dipyrrolo[2,1-c:2′,1′-l][1]oxa[4,7,10,13]tetraazacyclohexadecin-17-yl)-2-(3-(p-tolyl)ureido)propanamide] ({NH(4-Me-phenyl)-CO}-[Phe(3,5-F2)][aThr][ξP][NMeA]A[ξPro(4S-Me)]; ester 2-C) | 0.125 µM (≈ 0.0977 µg/mL) | 0.03 µM (≈ 0.0235 µg/mL) | 0.2 µM (≈ 0.156 µg/mL) | 0.2 µM (≈ 0.156 µg/mL) | 200 µM | 0.39 µM (≈ 0.305 µg/mL) | 40.5 ± 3.8 µM | 0.5 µM (≈ 0.391 µg/mL) | – | – | – | – |
| Cc1ccc(NC(=O)N[C@@H](Cc2cc(F)cc(F)c2)C(=O)N[C@H]2COC(=O)[C@@H]3C[C@@H](C)CN3C(=O)[C@H](C)NC(=O)[C@@H]3CCCCN3C(=O)[C@@H]3CCCN3C2=O)cc1 [Compound 24, (S)-3-(3,5-difluorophenyl)-N-((2R,6S,8aS,14aS,20S,23aS)-2,6-dimethyl-5,8,14,19,23-pentaoxooctadecahydro-1H,5H,14H,19H-pyrido[2,1-i]dipyrrolo[2,1-c:2′,1′-l][1]oxa[4,7,10,13]tetraazacyclohexadecin-20-yl)-2-(3-(p-tolyl)ureido)propanamide] | – | 2.2 µM (≈ 1.75 µg/mL) | 0.5 µM (≈ 0.397 µg/mL) | 0.5 µM (≈ 0.397 µg/mL) | – | – | 93.8 ± 4.8 µM | 0.5 µM (≈ 0.397 µg/mL) | – | – | – | – |
| Cc1ccc(NC(=O)N[C@@H](Cc2cc(F)cc(F)c2)C(=O)N[C@H]2COC(=O)C3C[C@H](C)CN3C(=O)[C@H](C)NC(=O)C3CCCCN3C(=O)C3CCCN3C2=O)cc1 (stereo partly drawn) [Compound 45, (S)-3-(3,5-difluorophenyl)-N-((2S,6S,8aS,14aS,20S,23aS)-2,6-dimethyl-5,8,14,19,23-pentaoxooctadecahydro-1H,5H,14H,19H-pyrido[2,1-i]dipyrrolo[2,1-c:2′,1′-l][1]oxa[4,7,10,13]tetraazacyclohexadecin-20-yl)-2-(3-(p-tolyl)ureido)propanamide] | 0.1 µM (≈ 0.0794 µg/mL) | – | 0.4 µM (≈ 0.318 µg/mL) | 0.2 to 0.4 µM (≈ 0.159 to 0.318 µg/mL) | 100 µM | 0.4 µM (≈ 0.318 µg/mL) | 56.8 ± 6.7 µM | 0.4 µM (≈ 0.318 µg/mL) | – | – | – | – |
| Cc1ccc(NC(=O)N[C@@H](Cc2cc(F)cc(F)c2)C(=O)N[C@@H]2C(=O)N3CCCC3C(=O)N3CCCCC3C(=O)N[C@@H](C)C(=O)N3C[C@H](C)CC3C(=O)O[C@H]2C)cc1 (stereo partly drawn) [Compound 39, (S)-3-(3,5-difluorophenyl)-2-(3-(p-tolyl)ureido)-N-((2R,6S,8aS,14aS,20S,21S,23aS)-2,6,21-trimethyl-5,8,14,19,23-pentaoxooctadecahydro-1H,5H,14H,19H-pyrido[2,1-i]dipyrrolo[2,1-c:2′,1′-l][1]oxa[4,7,10,13]tetraazacyclohexadecin-20-yl)propanamide] ({NH(4-Me-phenyl)-CO}-[Phe(3,5-F2)][aThr][ξP][ξPip]A[ξPro(4R-Me)]; ester 2-C) | 0.05 µM (≈ 0.0404 µg/mL) | 0.02 µM (≈ 0.0162 µg/mL) | 0.05 µM (≈ 0.0404 µg/mL) | 0.05 µM (≈ 0.0404 µg/mL) | 100 µM | 0.05 µM (≈ 0.0404 µg/mL) | 40 ± 4.1 µM | 0.2 µM (≈ 0.162 µg/mL) | – | – | – | – |
| CCCC/C=C/C(=O)N[C@@H](Cc1cc(F)cc(F)c1)C(=O)N[C@@H]1C(=O)N2CCC[C@H]2C(=O)N2CCCC[C@H]2C(=O)N[C@@H](C)C(=O)N2CCC[C@H]2C(=O)O[C@H]1C [ADEP 2719, reference compound] ({Heptenoyl(2E)}-[Phe(3,5-F2)][aThr]P[Pip]AP; ester 2-C) | – | – | 0.07 µM (≈ 0.054 µg/mL) | – | 500 µM | < 0.19 µM | 37.7 ± 3.4 µM | – | < 0.01 µM | 0.08 µM (≈ 0.0617 µg/mL) | 0.08 µM (≈ 0.0617 µg/mL) | < 0.2 µM |
